This note sets out measurements from the kinase profiling compilation of Christmann-Franck et al. (2016).

Sequence of PAK7 (human) (Q9P286 whole entry, looked up): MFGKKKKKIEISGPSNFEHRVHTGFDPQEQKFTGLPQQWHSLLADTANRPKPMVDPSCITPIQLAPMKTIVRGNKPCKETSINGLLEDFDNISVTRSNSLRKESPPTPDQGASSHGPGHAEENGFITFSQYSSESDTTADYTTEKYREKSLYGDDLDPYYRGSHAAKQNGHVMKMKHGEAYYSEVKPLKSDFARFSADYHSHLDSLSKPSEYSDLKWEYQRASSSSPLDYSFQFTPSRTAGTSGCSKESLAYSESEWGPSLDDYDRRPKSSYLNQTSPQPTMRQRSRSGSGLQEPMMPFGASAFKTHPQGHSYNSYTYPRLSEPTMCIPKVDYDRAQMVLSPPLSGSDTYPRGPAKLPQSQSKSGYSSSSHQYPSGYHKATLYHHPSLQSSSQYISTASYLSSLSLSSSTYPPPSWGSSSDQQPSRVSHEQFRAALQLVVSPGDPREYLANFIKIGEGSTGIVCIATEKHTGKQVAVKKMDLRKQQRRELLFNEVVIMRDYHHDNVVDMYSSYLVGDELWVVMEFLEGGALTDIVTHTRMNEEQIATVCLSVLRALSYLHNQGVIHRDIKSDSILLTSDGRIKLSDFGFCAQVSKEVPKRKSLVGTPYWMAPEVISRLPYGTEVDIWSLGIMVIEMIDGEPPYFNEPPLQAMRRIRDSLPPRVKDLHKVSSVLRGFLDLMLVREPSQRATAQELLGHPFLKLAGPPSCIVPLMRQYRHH
Sequence of LIMK1 (human) (P53667 whole entry, looked up): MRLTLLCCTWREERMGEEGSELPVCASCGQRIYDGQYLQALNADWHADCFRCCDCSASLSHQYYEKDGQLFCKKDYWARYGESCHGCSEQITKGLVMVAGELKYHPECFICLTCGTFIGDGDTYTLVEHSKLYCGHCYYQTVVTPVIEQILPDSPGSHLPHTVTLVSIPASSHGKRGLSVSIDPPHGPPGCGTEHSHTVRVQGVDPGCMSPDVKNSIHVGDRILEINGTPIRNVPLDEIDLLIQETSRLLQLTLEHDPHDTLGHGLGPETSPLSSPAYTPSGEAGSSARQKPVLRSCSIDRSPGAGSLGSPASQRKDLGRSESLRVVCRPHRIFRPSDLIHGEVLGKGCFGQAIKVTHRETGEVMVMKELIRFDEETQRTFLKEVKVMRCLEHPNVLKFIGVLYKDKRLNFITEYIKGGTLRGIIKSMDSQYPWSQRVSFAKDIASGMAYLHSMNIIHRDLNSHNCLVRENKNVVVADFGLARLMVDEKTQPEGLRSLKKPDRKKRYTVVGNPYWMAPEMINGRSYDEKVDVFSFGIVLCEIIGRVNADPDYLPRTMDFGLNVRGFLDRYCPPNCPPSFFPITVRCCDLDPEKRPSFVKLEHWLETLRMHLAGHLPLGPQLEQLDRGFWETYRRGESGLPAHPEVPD

The target of the first test is ULK2 (human) (UniProt Q8IYT8). Description: radiometric filter-binding kinase assay, Kinase HotSpot. The settings on record: compound 0.5 µM; ATP 10 µM.
What is called residual activity is the signal under treatment as a percentage of the control signal. Turning to `COc1ccc(CNC(=O)Nc2ncc([N+](=O)[O-])s2)cc1`, the residual activity came out at 93.4%.

For the compound `Cn1sc(=O)n(Cc2ccccc2)c1=O`, the residual activity was found to be 105%.

Regarding `CCn1cnc2c(Nc3cccc(Cl)c3)nc(N[C@@H]3CCCC[C@@H]3N)nc21`, the residual activity turned out to be 94.2%.

A further test deals with NEK11 (human) (UniProt Q8NG66). The test is described as above. The settings on record: compound 0.5 µM; ATP 10 µM.
Sequence of NEK11 (human) (Q8NG66 whole entry, looked up): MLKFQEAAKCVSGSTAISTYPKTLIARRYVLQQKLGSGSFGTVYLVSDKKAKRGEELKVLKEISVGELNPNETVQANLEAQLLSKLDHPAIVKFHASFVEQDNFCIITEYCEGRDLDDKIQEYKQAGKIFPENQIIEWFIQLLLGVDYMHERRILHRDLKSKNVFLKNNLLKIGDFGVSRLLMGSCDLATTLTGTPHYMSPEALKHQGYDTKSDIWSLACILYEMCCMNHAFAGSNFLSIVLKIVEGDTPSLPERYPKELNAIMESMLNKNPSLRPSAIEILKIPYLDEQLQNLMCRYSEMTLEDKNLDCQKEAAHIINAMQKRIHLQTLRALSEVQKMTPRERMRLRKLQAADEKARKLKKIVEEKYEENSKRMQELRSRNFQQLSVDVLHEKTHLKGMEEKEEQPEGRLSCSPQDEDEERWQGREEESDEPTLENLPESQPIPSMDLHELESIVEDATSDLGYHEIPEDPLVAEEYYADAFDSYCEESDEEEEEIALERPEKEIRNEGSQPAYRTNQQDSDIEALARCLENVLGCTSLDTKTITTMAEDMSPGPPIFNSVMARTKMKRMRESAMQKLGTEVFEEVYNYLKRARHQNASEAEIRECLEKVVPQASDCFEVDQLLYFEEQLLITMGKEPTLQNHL
Consider `COc1ccc(CNC(=O)Nc2ncc([N+](=O)[O-])s2)cc1`, for which the residual activity was found to be 104%.

Turning to `Cn1sc(=O)n(Cc2ccccc2)c1=O`, the residual activity is 102%.

On to `CCn1cnc2c(Nc3cccc(Cl)c3)nc(N[C@@H]3CCCC[C@@H]3N)nc21`, for which the residual activity came out at 101%.

The target in the next test is STK10 (human) (UniProt O94804). The description is as above. As to conditions: compound 0.5 µM; ATP 10 µM.
Sequence of STK10 (human) (O94804 whole entry, looked up): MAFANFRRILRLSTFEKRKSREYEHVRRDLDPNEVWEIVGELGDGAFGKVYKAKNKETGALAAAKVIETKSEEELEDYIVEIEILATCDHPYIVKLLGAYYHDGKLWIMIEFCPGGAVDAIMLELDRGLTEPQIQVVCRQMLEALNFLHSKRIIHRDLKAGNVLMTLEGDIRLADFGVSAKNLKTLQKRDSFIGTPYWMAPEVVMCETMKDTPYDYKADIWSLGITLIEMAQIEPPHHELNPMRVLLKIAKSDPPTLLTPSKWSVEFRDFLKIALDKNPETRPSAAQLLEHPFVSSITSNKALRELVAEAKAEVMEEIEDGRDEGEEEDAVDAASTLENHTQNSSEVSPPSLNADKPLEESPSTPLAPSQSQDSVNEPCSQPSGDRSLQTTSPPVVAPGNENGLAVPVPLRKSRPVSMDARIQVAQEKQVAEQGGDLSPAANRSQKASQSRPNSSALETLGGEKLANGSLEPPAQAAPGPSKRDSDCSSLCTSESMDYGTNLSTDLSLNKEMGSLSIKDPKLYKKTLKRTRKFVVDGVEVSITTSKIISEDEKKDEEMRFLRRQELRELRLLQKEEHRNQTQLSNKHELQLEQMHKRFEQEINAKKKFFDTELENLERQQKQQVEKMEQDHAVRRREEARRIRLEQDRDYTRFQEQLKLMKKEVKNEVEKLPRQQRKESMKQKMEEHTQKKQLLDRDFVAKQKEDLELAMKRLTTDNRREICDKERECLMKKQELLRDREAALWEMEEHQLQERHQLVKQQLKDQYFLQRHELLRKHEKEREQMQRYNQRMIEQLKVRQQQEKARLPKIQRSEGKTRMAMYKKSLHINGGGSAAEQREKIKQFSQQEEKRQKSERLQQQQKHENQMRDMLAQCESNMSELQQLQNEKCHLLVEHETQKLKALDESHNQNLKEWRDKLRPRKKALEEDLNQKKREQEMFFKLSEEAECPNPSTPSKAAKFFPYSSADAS
For `COc1ccc(CNC(=O)Nc2ncc([N+](=O)[O-])s2)cc1`, the residual activity is 94.3%.

As for `Cn1sc(=O)n(Cc2ccccc2)c1=O`, the residual activity turned out to be 98.1%.

Regarding `CCn1cnc2c(Nc3cccc(Cl)c3)nc(N[C@@H]3CCCC[C@@H]3N)nc21`, the residual activity is 75.1%.

For another test, the target named is FGFR4 (human) (UniProt P22455). The test is described as above. As to conditions: compound 0.5 µM; ATP 10 µM.
In the case of `COc1ccc(CNC(=O)Nc2ncc([N+](=O)[O-])s2)cc1`, the residual activity worked out at 98.9%.

As for `Cn1sc(=O)n(Cc2ccccc2)c1=O`, the residual activity was found to be 97.2%.

On to `CCn1cnc2c(Nc3cccc(Cl)c3)nc(N[C@@H]3CCCC[C@@H]3N)nc21`, for which the residual activity was determined as 97.5%.

Another test deals with CDK7 CCNH MNAT1 (human) (UniProt P50613+P51948+P51946). The test is described as above. The settings on record: compound 0.5 µM; ATP 10 µM.
In the case of `COc1ccc(CNC(=O)Nc2ncc([N+](=O)[O-])s2)cc1`, the residual activity amounted to 94.8%.

`Cn1sc(=O)n(Cc2ccccc2)c1=O`: the residual activity was determined as 96.8%.

Consider `CCn1cnc2c(Nc3cccc(Cl)c3)nc(N[C@@H]3CCCC[C@@H]3N)nc21`, for which the residual activity stood at 58.4%.

For the next test, the target named is STK3 (human) (UniProt Q13188). Described as above. As to conditions: compound 0.5 µM; ATP 10 µM.
As to `COc1ccc(CNC(=O)Nc2ncc([N+](=O)[O-])s2)cc1`, the residual activity amounted to 92.6%.

In the case of `Cn1sc(=O)n(Cc2ccccc2)c1=O`, the residual activity is 93.2%.

As for `CCn1cnc2c(Nc3cccc(Cl)c3)nc(N[C@@H]3CCCC[C@@H]3N)nc21`, the residual activity turned out to be 83.9%.

The next test deals with LCK (human) (UniProt P06239). Described as above. The settings on record: compound 0.5 µM; ATP 10 µM.
In the case of `COc1ccc(CNC(=O)Nc2ncc([N+](=O)[O-])s2)cc1`, the residual activity was determined as 101%.

With `Cn1sc(=O)n(Cc2ccccc2)c1=O`, the residual activity came to 103%.

On to `CCn1cnc2c(Nc3cccc(Cl)c3)nc(N[C@@H]3CCCC[C@@H]3N)nc21`, for which the residual activity stood at 89.5%.

The next test deals with EPHB2 (human) (UniProt P29323). The test is described as above. The settings on record: compound 0.5 µM; ATP 10 µM.
Sequence of EPHB2 (human) (P29323 whole entry, looked up): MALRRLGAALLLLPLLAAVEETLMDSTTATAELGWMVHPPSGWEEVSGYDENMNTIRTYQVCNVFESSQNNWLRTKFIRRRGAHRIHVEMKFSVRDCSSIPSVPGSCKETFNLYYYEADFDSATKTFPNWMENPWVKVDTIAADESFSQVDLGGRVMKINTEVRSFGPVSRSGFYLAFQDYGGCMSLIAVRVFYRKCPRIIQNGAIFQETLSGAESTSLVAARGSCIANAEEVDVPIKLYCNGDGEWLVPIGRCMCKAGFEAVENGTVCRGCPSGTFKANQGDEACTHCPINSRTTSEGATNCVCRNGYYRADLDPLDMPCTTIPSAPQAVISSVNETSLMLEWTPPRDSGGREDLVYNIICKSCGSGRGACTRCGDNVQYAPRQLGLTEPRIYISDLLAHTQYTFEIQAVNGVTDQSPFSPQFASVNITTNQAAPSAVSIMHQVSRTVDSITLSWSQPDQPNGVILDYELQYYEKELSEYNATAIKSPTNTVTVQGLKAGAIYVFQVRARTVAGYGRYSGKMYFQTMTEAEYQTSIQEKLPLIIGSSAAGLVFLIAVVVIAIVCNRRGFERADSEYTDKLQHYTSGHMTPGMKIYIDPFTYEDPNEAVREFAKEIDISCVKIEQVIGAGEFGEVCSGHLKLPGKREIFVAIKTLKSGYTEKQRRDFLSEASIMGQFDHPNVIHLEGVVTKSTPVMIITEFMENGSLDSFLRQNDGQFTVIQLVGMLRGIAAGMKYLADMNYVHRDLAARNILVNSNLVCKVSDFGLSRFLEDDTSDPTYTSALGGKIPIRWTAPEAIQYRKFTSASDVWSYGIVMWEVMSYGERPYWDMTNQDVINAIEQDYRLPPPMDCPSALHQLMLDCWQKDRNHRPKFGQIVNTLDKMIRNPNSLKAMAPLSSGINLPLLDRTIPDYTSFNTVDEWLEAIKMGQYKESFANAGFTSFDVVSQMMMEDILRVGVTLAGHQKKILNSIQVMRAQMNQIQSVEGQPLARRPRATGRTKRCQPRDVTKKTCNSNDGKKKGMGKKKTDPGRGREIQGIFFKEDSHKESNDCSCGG
Take `COc1ccc(CNC(=O)Nc2ncc([N+](=O)[O-])s2)cc1`: the residual activity was determined as 88.4%.

Consider `Cn1sc(=O)n(Cc2ccccc2)c1=O`, for which the residual activity came out at 88.5%.

Turning to `CCn1cnc2c(Nc3cccc(Cl)c3)nc(N[C@@H]3CCCC[C@@H]3N)nc21`, the residual activity turned out to be 82.9%.

The target of a further test is MAPKAPK3 (human) (UniProt Q16644). Described as above. As to conditions: compound 0.5 µM; ATP 10 µM.
Consider `COc1ccc(CNC(=O)Nc2ncc([N+](=O)[O-])s2)cc1`, for which the residual activity stood at 103%.

Turning to `Cn1sc(=O)n(Cc2ccccc2)c1=O`, the residual activity stood at 105%.

Take `CCn1cnc2c(Nc3cccc(Cl)c3)nc(N[C@@H]3CCCC[C@@H]3N)nc21`: the residual activity worked out at 91.3%.

A further test addresses LIMK1 (human) (UniProt P53667). The description is as above. The settings on record: compound 0.5 µM; ATP 10 µM.
As to `COc1ccc(CNC(=O)Nc2ncc([N+](=O)[O-])s2)cc1`, the residual activity is 96%.

Take `Cn1sc(=O)n(Cc2ccccc2)c1=O`: the residual activity turned out to be 101%.

Take `CCn1cnc2c(Nc3cccc(Cl)c3)nc(N[C@@H]3CCCC[C@@H]3N)nc21`: the residual activity is 108%.

For another test, the target named is SRPK2 (human) (UniProt P78362). Described as above. As to conditions: compound 0.5 µM; ATP 10 µM.
On to `COc1ccc(CNC(=O)Nc2ncc([N+](=O)[O-])s2)cc1`, for which the residual activity worked out at 99.6%.

For `Cn1sc(=O)n(Cc2ccccc2)c1=O`, the residual activity is 98.1%.

Turning to `CCn1cnc2c(Nc3cccc(Cl)c3)nc(N[C@@H]3CCCC[C@@H]3N)nc21`, the residual activity was 80.7%.

The target in another test is MST4 (human) (UniProt Q9P289). The test is described as above. As to conditions: compound 0.5 µM; ATP 10 µM.
Sequence of MST4 (human) (Q9P289 whole entry, looked up): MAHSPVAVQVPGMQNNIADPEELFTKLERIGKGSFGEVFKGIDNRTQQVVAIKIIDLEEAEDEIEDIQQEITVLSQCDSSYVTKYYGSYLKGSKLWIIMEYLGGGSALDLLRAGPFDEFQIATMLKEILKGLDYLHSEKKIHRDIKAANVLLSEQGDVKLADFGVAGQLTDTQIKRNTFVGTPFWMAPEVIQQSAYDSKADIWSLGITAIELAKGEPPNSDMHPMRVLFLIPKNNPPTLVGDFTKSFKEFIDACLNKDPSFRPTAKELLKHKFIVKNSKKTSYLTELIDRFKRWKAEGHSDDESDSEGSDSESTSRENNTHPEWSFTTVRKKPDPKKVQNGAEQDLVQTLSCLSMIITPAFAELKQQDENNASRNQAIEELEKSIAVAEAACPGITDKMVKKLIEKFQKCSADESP
Take `COc1ccc(CNC(=O)Nc2ncc([N+](=O)[O-])s2)cc1`: the residual activity amounted to 113%.

For the compound `Cn1sc(=O)n(Cc2ccccc2)c1=O`, the residual activity came out at 98.1%.

Take `CCn1cnc2c(Nc3cccc(Cl)c3)nc(N[C@@H]3CCCC[C@@H]3N)nc21`: the residual activity was 104%.

The target of a further test is SRPK3 (human) (UniProt Q9UPE1). The test is described as above. As to conditions: compound 0.5 µM; ATP 10 µM.
Turning to `COc1ccc(CNC(=O)Nc2ncc([N+](=O)[O-])s2)cc1`, the residual activity was 100%.

`Cn1sc(=O)n(Cc2ccccc2)c1=O`: the residual activity amounted to 97.3%.

Regarding `CCn1cnc2c(Nc3cccc(Cl)c3)nc(N[C@@H]3CCCC[C@@H]3N)nc21`, the residual activity amounted to 94.9%.

For the next test, the target named is RET (human) (UniProt P07949). The test is described as above. The settings on record: compound 0.5 µM; ATP 10 µM.
For `COc1ccc(CNC(=O)Nc2ncc([N+](=O)[O-])s2)cc1`, the residual activity amounted to 97.9%.

For `Cn1sc(=O)n(Cc2ccccc2)c1=O`, the residual activity turned out to be 106%.

Consider `CCn1cnc2c(Nc3cccc(Cl)c3)nc(N[C@@H]3CCCC[C@@H]3N)nc21`, for which the residual activity was 69.3%.

Another test concerns the target NUAK1 (human) (UniProt O60285). The test is described as above. As to conditions: compound 0.5 µM; ATP 10 µM.
As for `COc1ccc(CNC(=O)Nc2ncc([N+](=O)[O-])s2)cc1`, the residual activity is 99.7%.

`Cn1sc(=O)n(Cc2ccccc2)c1=O`: the residual activity amounted to 102%.

As to `CCn1cnc2c(Nc3cccc(Cl)c3)nc(N[C@@H]3CCCC[C@@H]3N)nc21`, the residual activity amounted to 52.4%.

In the next test the target is ROCK1 (human) (UniProt Q13464). The test is described as above. The settings on record: compound 0.5 µM; ATP 10 µM.
Turning to `COc1ccc(CNC(=O)Nc2ncc([N+](=O)[O-])s2)cc1`, the residual activity is 102%.

In the case of `Cn1sc(=O)n(Cc2ccccc2)c1=O`, the residual activity worked out at 94.6%.

In the case of `CCn1cnc2c(Nc3cccc(Cl)c3)nc(N[C@@H]3CCCC[C@@H]3N)nc21`, the residual activity was found to be 96.5%.

The target in another test is MAPKAPK2 (human) (UniProt P49137). Described as above. The settings on record: compound 0.5 µM; ATP 10 µM.
As to `COc1ccc(CNC(=O)Nc2ncc([N+](=O)[O-])s2)cc1`, the residual activity turned out to be 112%.

For the compound `Cn1sc(=O)n(Cc2ccccc2)c1=O`, the residual activity was 102%.

For `CCn1cnc2c(Nc3cccc(Cl)c3)nc(N[C@@H]3CCCC[C@@H]3N)nc21`, the residual activity came to 94.9%.

The next test has as its target PTK6 (human) (UniProt Q13882). The description is as above. As to conditions: compound 0.5 µM; ATP 10 µM.
Turning to `COc1ccc(CNC(=O)Nc2ncc([N+](=O)[O-])s2)cc1`, the residual activity stood at 99.6%.

Regarding `Cn1sc(=O)n(Cc2ccccc2)c1=O`, the residual activity was 96.7%.

`CCn1cnc2c(Nc3cccc(Cl)c3)nc(N[C@@H]3CCCC[C@@H]3N)nc21`: the residual activity is 82.1%.

The next test has as its target PAK7 (human) (UniProt Q9P286). The description is as above. As to conditions: compound 0.5 µM; ATP 10 µM.
Regarding `COc1ccc(CNC(=O)Nc2ncc([N+](=O)[O-])s2)cc1`, the residual activity is 95.4%.

With `Cn1sc(=O)n(Cc2ccccc2)c1=O`, the residual activity was found to be 81.1%.

In the case of `CCn1cnc2c(Nc3cccc(Cl)c3)nc(N[C@@H]3CCCC[C@@H]3N)nc21`, the residual activity stood at 64.7%.

The target in the next test is MAPK8 (human) (UniProt P45983). Described as above. As to conditions: compound 0.5 µM; ATP 10 µM.
Sequence of MAPK8 (human) (P45983 whole entry, looked up): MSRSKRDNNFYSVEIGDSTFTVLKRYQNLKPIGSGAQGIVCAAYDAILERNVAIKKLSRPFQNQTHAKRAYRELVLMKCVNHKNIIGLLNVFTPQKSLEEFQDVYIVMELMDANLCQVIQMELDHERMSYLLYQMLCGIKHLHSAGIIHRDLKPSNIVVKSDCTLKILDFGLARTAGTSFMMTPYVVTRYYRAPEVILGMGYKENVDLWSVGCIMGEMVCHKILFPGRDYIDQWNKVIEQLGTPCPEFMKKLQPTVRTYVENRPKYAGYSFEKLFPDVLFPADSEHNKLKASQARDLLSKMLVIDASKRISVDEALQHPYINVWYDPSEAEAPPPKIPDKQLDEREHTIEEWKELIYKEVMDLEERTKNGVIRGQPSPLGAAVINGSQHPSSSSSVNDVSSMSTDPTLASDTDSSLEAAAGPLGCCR
Regarding `COc1ccc(CNC(=O)Nc2ncc([N+](=O)[O-])s2)cc1`, the residual activity was found to be 104%.

For the compound `Cn1sc(=O)n(Cc2ccccc2)c1=O`, the residual activity is 85.5%.

With `CCn1cnc2c(Nc3cccc(Cl)c3)nc(N[C@@H]3CCCC[C@@H]3N)nc21`, the residual activity was found to be 97.6%.

The next test has as its target SGK3 (human) (UniProt Q96BR1). Described as above. The settings on record: compound 0.5 µM; ATP 10 µM.
On to `COc1ccc(CNC(=O)Nc2ncc([N+](=O)[O-])s2)cc1`, for which the residual activity turned out to be 96.9%.

In the case of `Cn1sc(=O)n(Cc2ccccc2)c1=O`, the residual activity was determined as 102%.

Take `CCn1cnc2c(Nc3cccc(Cl)c3)nc(N[C@@H]3CCCC[C@@H]3N)nc21`: the residual activity worked out at 94.3%.
